Source: US20240352069A1, “SYNTHETIC PEPTIDE, AND COSMETIC COMPOSITION OR PHARMACEUTICAL COMPOSITION AND APPLICATION THEREOF” (SHENZHEN WINKEY TECHNOLOGY CO., LTD., priority 2021, published 2024)

Assays:
HaCaT cells [1] = experiment: Scratch test (cell migration); format: cell-based, human; conditions: 24 hours after scratch; peptides 100 ppm, EGF 50 U/mL; vs normal control group
Experimental: Human keratinocytes (HaCaT) were purchased from the Kunming Cell Bank of the Type Culture Collection Committee of the Chinese Academy of Sciences.
The cryopreserved HaCaT cells were cultured, subcultured to about 5 passages according to the ratio of 1:2, and the cells with better growth were selected as the experimental objects. Cells were seeded in a 12-well plate at a density of 200,000 cells/well, with 2 mL of cell suspension in each well. After the cells adhered to the wall, the medium was replaced with 0.5% to 1% fetal bovine serum to maintain the cells for 24 hours to synchronize them. change. Scratch with a sterilized pipette tip, wash off the dropped cells with PBS, add the sample to be tested, continue to incubate in a 37° C., 5% CO2 incubator, and place it under an optical microscope after 24 hours to analyze the wound healing area.
The cell scratch migration test can reflect the proliferation and repair ability of the cells.

HaCaT cells [2] = experiment: UVB light damage repair experiment (MTT), HaCaT; format: cell-based, human; conditions: UVB irradiated, 12.5-100 ppm, 24 hours
Experimental: Human keratinocytes (HaCaT) were purchased from the Kunming Cell Bank of the Type Culture Collection Committee of the Chinese Academy of Sciences, and mouse skin fibroblasts (NIH3T3) were purchased from the Shanghai Cell Bank of the Type Culture Collection Committee of the Chinese Academy of Sciences.
Take cells in good exponential growth phase, add 0.25% trypsin digestion solution, digest to make adherent cells fall off, count 1×10^5-4×10^5 cells/mL, and make cell suspension.
Cells were seeded into 96-well plates at 10,000 cells/well, and the UVB photodamage model was established when the cells reached about 80% confluent. […]
After 24 hours, add 22 μL of 5 mg/mL MTT to each well, place in an incubator and incubate for 4 hours, discard the original solution, and add 150 μL/well of DMSO. After 5 minutes, use a microplate reader to read the reference OD values at 490 nm and 630 nm wavelengths.
By establishing a UVB light-damaged cell model, administering 24 hours after ultraviolet light irradiation, and using the MTT method to detect cell proliferation activity, the ability of the peptide of the present invention to repair light-damaged cells was evaluated.

TNF-α = experiment: Anti-inflammatory repair experiment, LPS-stimulated RAW264.7 cells, ELISA TNF-α; format: cell-based, mouse
Source text: (§1) Mouse mononuclear macrophages (RAW264.7 cells).
(§2) Peptide (2), tested at a concentration of 100 ppm.
(§3) • a) Take RAW264.7 cells in good exponential growth phase, add 0.25% trypsin digestion solution, digest to make adherent cells fall off, count 1-4×10^6 cells/mL, and make cell suspension; • b) Appropriately dilute 100,000 cells/well of cell suspension and inoculate it on a 6-well plate, and establish an LPS-stimulated inflammation model when the cells reached about 80% confluent. Set blank control group (control), LPS group, dexamethasone group (DXM), polypeptide group. Add 1000 μL culture medium to the blank control group; add 200 ng/mL LPS to the LPS group, add culture medium to 1000 μL; add 200 ng/mL LPS and 50 ng/mL dexamethasone to the dexamethasone group, add culture medium to 1000 μL; add 200 ng/mL LPS and peptide (2) to the polypeptide group, add culture medium to 1000 μL (final test concentration of peptide is 100 ppm). […] The OD value of each well was sequentially measured at 450 nm with a microplate reader within 15 min after the reaction was terminated. […]

IL-6 = experiment: Anti-inflammatory repair experiment, LPS-stimulated RAW264.7 cells, ELISA IL-6; format: cell-based, mouse; conditions: 100 ppm, 200 ng/mL LPS, 48 h, vs LPS group
Source text: as §1, §2, §3

Substance: H-Ala-Pro-Phe-Arg-Met-Gly-Ile-Met-Thr-Thr-Asn-OH (H-APFRMGIMTTN-OH) [Peptide (2)]
- scratch spacing (proliferation and migration) (HaCaT cells [1]): shorter than that of the normal control group
- effect on improving activity of photodamaged HaCaT cells compared among peptides (1)-(5) (HaCaT cells [2]): better effect on improving cell activity
- anti-inflammatory effect compared with dexamethasone (TNF-α; 100 ppm vs 50 ng/mL dexamethasone, TNF-α, IL-6 and IL-8): equivalent to the positive drug dexamethasone
- expression of TNF-α (TNF-α; 100 ppm, 200 ng/mL LPS, 48 h, vs LPS group): significantly down-regulated
- expression of IL-6 (IL-6): significantly down-regulated
